From US20230114728A1 (Venatorx Pharmaceuticals, Inc., priority 2019, published 2023)
≈ marks a conversion by molar mass, not a printed value.

Key:
Test in all cases: Broth microdilution MIC in CAMHB
Assay type in all cases: cell-based
[1] = system: E. coli AG100A; conditions: Escherichia coli, read-out: Minimum Inhibitory Concentration, E. coli AG100A
Method in brief: (§1)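 CLSI microdilution; CAMHB; inoculum 2-8×10^5 CFU/mL from 3-5 h 37° C culture; 2-fold compound series; 16-20 h, 37° C; MIC = lowest well without visible growth.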

[2] = system: A. baumannii ATCC 19606; conditions: Acinetobacter baumannii, ATCC19606; MHB; read-out: Minimum Inhibitory Concentration, A. baumannii ATCC 19606
Method in brief: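 CLSI broth microdilution in CAMHB: 2-fold compound dilutions inoculated at 2-8×10^5 CFU/mL from 3-5 h log-phase cultures. Incubated at 37 °C for 16-20 h (Enterobacteriaceae, Pseudomonas); MIC read visually as lowest concentration without growth. Strains include hyper-permeable and efflux-deficient mutants.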

[3] = system: P. aeruginosa ATCC 35151; conditions: Pseudomonas aeruginosa, ATCC35151; MHB; hyper-permeable strain; read-out: Minimum Inhibitory Concentration, P. aeruginosa ATCC 35151
Method in brief: as §1

[4] = system: K. pneumoniae UMM producing SHV-5 and KPC-2; conditions: Klebsiella pneumoniae, read-out: Minimum Inhibitory Concentration, K. pneumoniae UMM
Method in brief: as §1

[5] = system: K. pneumoniae 848844 producing SHV-11 and KPC-2; conditions: Klebsiella pneumoniae, read-out: Minimum Inhibitory Concentration, K. pneumoniae 848844
Method in brief: as §1

[6] = system: E. coli D22; conditions: Escherichia coli; E. coli D22 (hyper-permeable); MHB; read-out: Minimum Inhibitory Concentration, E. coli D22
Method in brief: as §1

[7] = system: E. coli 901C; conditions: Escherichia coli; E. coli 901C (hyper-permeable); MHB; read-out: Minimum Inhibitory Concentration, E. coli 901C
Method in brief: as §1

[8] = system: P. aeruginosa ATCC 27853; conditions: Pseudomonas aeruginosa, ATCC27853; MHB; read-out: Minimum Inhibitory Concentration, P. aeruginosa ATCC 27853
Method in brief: as §1

[9] = system: K. pneumoniae SI-117 producing VIM-1; conditions: Klebsiella pneumoniae, read-out: Minimum Inhibitory Concentration, K. pneumoniae SI-117
Method in brief: as §1

[10] = system: E. coli ATCC 25922; conditions: Escherichia coli, ATCC25922; E. coli ATCC 25922; MHB; read-out: Minimum Inhibitory Concentration, E. coli 25922
Method in brief: as §1

[11] = system: E. coli AG100; conditions: Escherichia coli; E. coli AG100 (wild-type parent); MHB; read-out: Minimum Inhibitory Concentration, E. coli AG100
Method in brief: as §1

[12] = system: P. aeruginosa (ΔmexAB-oprM); conditions: Pseudomonas aeruginosa, read-out: Minimum Inhibitory Concentration, P. aeruginosa ΔmexAB-OprM
Method in brief: as §1

Row | Compound | MIC [1] [µg/mL] | MIC [2] [µg/mL] | MIC [3] [µg/mL] | MIC [4] [µg/mL] | MIC [5] [µg/mL] | MIC [6] [µg/mL] | MIC [7] [µg/mL] | MIC [8] [µg/mL] | MIC [9] [µg/mL] | MIC [10] [µg/mL] | MIC [11] [µg/mL] | MIC [12] [µg/mL]
1 | CCN1CCN(C(=O)NC(C(=O)N[C@H]2Cc3cccc(C(=O)O)c3OB2O)c2ccc(O)cc2OC)C(=O)C1=O (stereo partly drawn) [Example 70, (3R)-3-(2-(4-ethyl-2,3-dioxopiperazine-1-carboxamido)-2-(4-hydroxy-2-methoxyphenyl)acetamido)-2-hydroxy-3,4-dihydro-2H-benzo[e][1,2]oxaborinine-8-carboxylic acid] | 2 to 4 (≈ 3.61 to 7.22 µM) | > 128 | 8 to 16 (≈ 14.4 to 28.9 µM) | > 128 | > 128 | 8 to 16 (≈ 14.4 to 28.9 µM) | 0.5 to 1 (≈ 0.902 to 1.8 µM) | > 128 | > 128 | > 128 | > 128 | 8 to 16 (≈ 14.4 to 28.9 µM)
2 | CCN1CCN(C(=O)NC(C(=O)N[C@H]2Cc3cccc(C(=O)O)c3OB2O)c2cccc(N)c2)C(=O)C1=O (stereo partly drawn) [Example 72, (3R)-3-(2-(3-aminophenyl)-2-(4-ethyl-2,3-dioxopiperazine-1-carboxamido)acetamido)-2-hydroxy-3,4-dihydro-2H-benzo[e][1,2]oxaborinine-8-carboxylic acid] | 2 to 4 (≈ 3.82 to 7.64 µM) | > 128 | 2 to 4 (≈ 3.82 to 7.64 µM) | 32 to 64 (≈ 61.1 to 122 µM) | > 128 | 2 to 4 (≈ 3.82 to 7.64 µM) | < 0.25 | > 128 | > 128 | 32 to 64 (≈ 61.1 to 122 µM) | 32 to 64 (≈ 61.1 to 122 µM) | 8 to 16 (≈ 15.3 to 30.6 µM)
3 | CCN1CCN(C(=O)NC(C(=O)N[C@H]2Cc3cccc(C(=O)O)c3OB2O)c2cccc(NC(=O)c3ccc(O)c(O)c3Cl)c2)C(=O)C1=O (stereo partly drawn) [Example 73, (3R)-3-(2-(3-(2-chloro-3,4-dihydroxybenzamido)phenyl)-2-(4-ethyl-2,3-dioxopiperazine-1-carboxamido)acetamido)-2-hydroxy-3,4-dihydro-2H-benzo[e][1,2]oxaborinine-8-carboxylic acid] | 2 to 4 (≈ 2.88 to 5.76 µM) | 0.5 to 1 (≈ 0.721 to 1.44 µM) | 0.5 to 1 (≈ 0.721 to 1.44 µM) | 0.5 to 1 (≈ 0.721 to 1.44 µM) | 8 to 16 (≈ 11.5 to 23.1 µM) | 2 to 4 (≈ 2.88 to 5.76 µM) | < 0.25 | 2 to 4 (≈ 2.88 to 5.76 µM) | 8 to 16 (≈ 11.5 to 23.1 µM) | 2 to 4 (≈ 2.88 to 5.76 µM) | 2 to 4 (≈ 2.88 to 5.76 µM) | 0.5 to 1 (≈ 0.721 to 1.44 µM)
4 | CCN1CCN(C(=O)NC(C(=O)N[C@H]2Cc3cccc(C(=O)O)c3OB2O)c2ccc(O)c(NC(=O)c3ccc(O)c(O)c3Cl)c2)C(=O)C1=O (stereo partly drawn) [Example 74, (3R)-3-(2-(3-(2-chloro-3,4-dihydroxybenzamido)-4-hydroxyphenyl)-2-(4-ethyl-2,3-dioxopiperazine-1-carboxamido)acetamido)-2-hydroxy-3,4-dihydro-2H-benzo[e][1,2]oxaborinine-8-carboxylic acid] | 8 to 16 (≈ 11.3 to 22.5 µM) | > 128 | 0.5 to 1 (≈ 0.704 to 1.41 µM) | > 128 | > 128 | 2 to 4 (≈ 2.82 to 5.63 µM) | < 0.25 | 8 to 16 (≈ 11.3 to 22.5 µM) | > 128 | > 128 | 8 to 16 (≈ 11.3 to 22.5 µM) | 0.5 to 1 (≈ 0.704 to 1.41 µM)
5 | CCN1CCN(C(=O)NC(C(=O)N[C@H]2Cc3cccc(C(=O)O)c3OB2O)c2cccc([N+](=O)[O-])c2)C(=O)C1=O (stereo partly drawn) [Example 75, (3R)-3-(2-(4-ethyl-2,3-dioxopiperazine-1-carboxamido)-2-(3-nitrophenyl)acetamido)-2-hydroxy-3,4-dihydro-2H-benzo[e][1,2]oxaborinine-8-carboxylic acid] | 8 to 16 (≈ 14.5 to 28.9 µM) | > 128 | 8 to 16 (≈ 14.5 to 28.9 µM) | > 128 | > 128 | 8 to 16 (≈ 14.5 to 28.9 µM) | 0.5 to 1 (≈ 0.904 to 1.81 µM) | > 128 | > 128 | > 128 | > 128 | 32 to 64 (≈ 57.8 to 116 µM)
6 | CCN1CCN(C(=O)NC(C(=O)N[C@H]2Cc3cccc(C(=O)O)c3OB2O)c2cccc(NS(C)(=O)=O)c2)C(=O)C1=O (stereo partly drawn) [Example 76, (3R)-3-(2-(4-ethyl-2,3-dioxopiperazine-1-carboxamido)-2-(3-(methylsulfonamido)phenyl)acetamido)-2-hydroxy-3,4-dihydro-2H-benzo[e][1,2]oxaborinine-8-carboxylic acid] | 2 to 4 (≈ 3.33 to 6.65 µM) | > 128 | 2 to 4 (≈ 3.33 to 6.65 µM) | 32 to 64 (≈ 53.2 to 106 µM) | > 128 | 2 to 4 (≈ 3.33 to 6.65 µM) | < 0.25 | > 128 | > 128 | 32 to 64 (≈ 53.2 to 106 µM) | 8 to 16 (≈ 13.3 to 26.6 µM) | 8 to 16 (≈ 13.3 to 26.6 µM)
7 | CCN1CCN(C(=O)NC(C(=O)N[C@H]2Cc3cccc(C(=O)O)c3OB2O)c2cc(O)ccc2O)C(=O)C1=O (stereo partly drawn) [Example 77, (3R)-3-(2-(2,5-dihydroxyphenyl)-2-(4-ethyl-2,3-dioxopiperazine-1-carboxamido)acetamido)-2-hydroxy-3,4-dihydro-2H-benzo[e][1,2]oxaborinine-8-carboxylic acid] | 32 to 64 (≈ 59.2 to 118 µM) | > 128 | 8 to 16 (≈ 14.8 to 29.6 µM) | > 128 | > 128 | 8 to 16 (≈ 14.8 to 29.6 µM) | 8 to 16 (≈ 14.8 to 29.6 µM) | > 128 | > 128 | > 128 | > 128 | > 128
8 | N=C(N)NCCN1CCN(C(=O)NC(C(=O)N[C@H]2Cc3ccc(F)c(C(=O)O)c3OB2O)c2ccc(C(=O)O)c(F)c2)C(=O)C1=O (stereo partly drawn) [Example 78, (3R)-3-(2-(4-carboxy-3-fluorophenyl)-2-(4-(2-guanidinoethyl)-2,3-dioxopiperazine-1-carboxamido)acetamido)-7-fluoro-2-hydroxy-3,4-dihydro-2H-benzo[e][1,2]oxaborinine-8-carboxylic acid] | > 128 | > 128 | 0.5 to 1 (≈ 0.775 to 1.55 µM) | > 128 | > 128 | 8 to 16 (≈ 12.4 to 24.8 µM) | 2 to 4 (≈ 3.1 to 6.2 µM) | 32 to 64 (≈ 49.6 to 99.2 µM) | > 128 | > 128 | > 128 | 32 to 64 (≈ 49.6 to 99.2 µM)
9 | NCCN1CCN(C(=O)NC(C(=O)N[C@H]2Cc3cccc(C(=O)O)c3OB2O)c2cc(Cl)c(O)cc2F)C(=O)C1=O (stereo partly drawn) [Example 87, (3R)-3-(2-(4-(2-aminoethyl)-2,3-dioxopiperazine-1-carboxamido)-2-(5-chloro-2-fluoro-4-hydroxyphenyl)acetamido)-2-hydroxy-3,4-dihydro-2H-benzo[e][1,2]oxaborinine-8-carboxylic acid] | 0.5 to 1 (≈ 0.845 to 1.69 µM) | > 128 | 0.5 to 1 (≈ 0.845 to 1.69 µM) | 8 to 16 (≈ 13.5 to 27 µM) | 32 to 64 (≈ 54.1 to 108 µM) | 2 to 4 (≈ 3.38 to 6.76 µM) | < 0.25 | > 128 | 32 to 64 (≈ 54.1 to 108 µM) | 8 to 16 (≈ 13.5 to 27 µM) | 8 to 16 (≈ 13.5 to 27 µM) | 8 to 16 (≈ 13.5 to 27 µM)
10 | NCCN1CCN(C(=O)N[C@@H](C(=O)N[C@H]2Cc3cccc(C(=O)O)c3OB2O)c2cc(Cl)c(O)cc2Cl)C(=O)C1=O [Example 90, (R)-3-((R)-2-(4-(2-aminoethyl)-2,3-dioxopiperazine-1-carboxamido)-2-(2,5-dichloro-4-hydroxyphenyl)acetamido)-2-hydroxy-3,4-dihydro-2H-benzo[e][1,2]oxaborinine-8-carboxylic acid] | 32 to 64 (≈ 52.6 to 105 µM) | > 128 | 0.5 to 1 (≈ 0.822 to 1.64 µM) | > 128 | > 128 | 8 to 16 (≈ 13.2 to 26.3 µM) | 0.5 to 1 (≈ 0.822 to 1.64 µM) | > 128 | > 128 | > 128 | 32 to 64 (≈ 52.6 to 105 µM) | > 128
